Data from a melting point compilation (Tetko et al.; mined from patent text by program, amines drawn as free bases though some values may be those of a salt).

Compound `COC(=O)C(C#N)C(c1ccccc1OC)c1ccnc2ccccc12` (configuration not stated) has a melting point of 169 to 171 °C.
`CCn1c(=O)n(OCc2ccccc2)c(=O)c2cc(F)c(N3CCCC3)nc21` gave a melting point of 189 to 190 °C.
With `CC(C)CNC(=O)C(C)(C)N=NC(C)(C)C(=O)NCC(C)C` the melting point was 100 °C.
In the case of `CC(Cn1cc(Cl)c(-c2ccccc2Cl)n1)C(=O)N(C)C` (configuration not stated), the melting point is reported as 91 to 92 °C.
Work on `CC(CO)C1CCC2C3C=CC4=CC(=O)C5OC5C4(C)C3CCC12C` (configuration not stated) yielded a melting point of 158 to 161 °C.
`O=c1c2c(O)c(O)ccc2c2cc(O)c(O)cc2n1Cc1ccc([N+](=O)[O-])cc1` gave a melting point of 258 to 263 °C.
With `Cc1cc(C(=O)NC2CC(C)(C)NC(C)(C)C2)c(C)o1` the melting point was 116 to 118 °C.
With `CSC(=S)C1(c2cccc(C)n2)CCCS1` (configuration not stated) the melting point was 80 °C.
Compound `CCOc1ncc(S(=O)(=O)N2CCN(CC)CC2)cc1-c1nc2c(CC)n(CCOC)nc2c(=O)[nH]1` has a melting point of 158 to 160 °C.
Work on `CCCCOCC(O)COc1ccc(-c2nc(OC)nc(-c3ccc(OCC(O)COCCCC)cc3O)n2)c(O)c1` (configuration not stated) yielded a melting point of 98 to 99 °C.
`CNC(=O)c1c(NC(=O)c2cc(C(F)(F)F)nn2-c2ncccc2Cl)ccc2cccnc12` showed a melting point of 219 to 220 °C.
With `[N-]=[N+]=NCCCCCCC(N)=O` the melting point was 62 °C.
Compound `CS(=O)(=O)Nc1cccc(NC(=O)C(=O)N2CCC(Cc3ccccc3)CC2)c1` has a melting point of 128 to 130 °C.
Compound `CCCCCCCCCCc1ccc(C(N)(CO)CO)cc1` has a melting point of 136 to 137 °C.
In the case of `CCSc1nc(C#N)c(C#N)nc1Cl`, the melting point is reported as 55 to 58.5 °C.
Work on `CCOCC1OC(n2cnc3c(NC4CCCC4)nc(Cl)nc32)C(O)C1O` (configuration not stated) yielded a melting point of 114 to 116 °C.
`CC#CCOc1ccc(/C=C/C(=O)Nc2ccccc2C(=O)O)cc1OC` showed a melting point of 194 to 195 °C.
With `CCn1nc(-c2ccccc2)c(C(C)=O)c(Nc2cccc(C(=O)O)c2Cl)c1=O` the melting point was 255 to 256 °C.
`Nc1nc(F)cc(F)n1` showed a melting point of 193 to 196 °C.
Compound `CCc1ccc(C(CC(=O)O)C(=O)O)s1` (configuration not stated) has a melting point of 165 to 166 °C.
Compound `CC1=NN(c2ccc(C(=O)O)cc2)C(=O)C1Cc1ccc(-c2cc(C)c(C)cc2[N+](=O)[O-])o1` (configuration not stated) has a melting point of 160 to 163 °C.
Compound `Oc1c(-c2ccccc2)nn(Cc2ccccc2)c1-c1ccccc1` has a melting point of 194 to 195 °C.
Compound `CN(C)c1c(F)c(F)c(F)c2c1c(=O)c(C(=O)O)cn2C1COC1` has a melting point of 173 to 175 °C.
With `CC(C)c1nn(-c2ccc(C(F)(F)F)cn2)cc1CCCCOc1ccc(CC(=O)O)cc1` the melting point was 130 to 131 °C.
Compound `COC(=O)c1cc(Cl)c2nc(C)cn2c1N` has a melting point of 188 to 191 °C.
For `NCc1c(Nc2ccccc2)cccc1-c1ccccc1`, the melting point was 115 to 116 °C.
For `CCOC(=O)C1C(=O)Nc2ccccc2SC1c1ccc(OC)cc1` (configuration not stated), the melting point was 192 °C.
In the case of `O=C(O)CCCc1ncccc1NS(=O)(=O)c1ccccc1`, the melting point is reported as 156 to 157 °C.
For `N#Cc1cccc(NC(=O)CN2CCN(c3ncccc3C#N)CC2)c1`, the melting point was 166 to 167 °C.
With `Cc1cc(CC2(Cc3cc(C)nc(Cl)c3)c3ccccc3-c3ncccc32)cc(Cl)n1` the melting point was 159 to 160 °C.
`CCOC(=O)c1c(S(C)(=O)=O)n(C2CC2)c2c(OC)c(F)c(F)cc2c1=O` gave a melting point of 177 to 178 °C.
In the case of `CC(=O)CC(=O)NCC#N`, the melting point is reported as 63 to 65 °C.
`CCOC(=O)c1ccc([N+](=O)[O-])cc1CBr` showed a melting point of 65 to 66 °C.
Work on `Cc1c(C(=O)NN2CCCCC2)nn(-c2ccc(Cl)cc2Cl)c1-c1ccc(OS(=O)(=O)CCC(F)(F)F)cc1` yielded a melting point of 160 °C.
Compound `CCOC(=O)C=C(C)c1ccc(C=CC=C(C)CCC=C(C)C)cc1` has a melting point of 32 to 32.5 °C.
Compound `NS(=O)(=O)NC(=O)CNC(=O)NCCCCC1CCSS1` (configuration not stated) has a melting point of 143 to 145 °C.
With `CN(C)CCN1C(=O)c2ccc3[nH]c4cc(O)c(O)cc4c3c2C1=O` the melting point was > 260 °C.
`COC(=O)c1cc(C(=O)c2c(C)c(OC)c3ccccn23)ccc1NC(=O)NCC(=O)N(C)C` showed a melting point of 228 °C.
`N#Cc1cc(O)c(O)c(C#N)c1CCC(=O)O` showed a melting point of 210 to 220 °C.
`CCn1nc(-c2ccc(Oc3nc4cccnc4n3C)cc2)c2nccnc21` showed a melting point of 161 to 162 °C.
`COc1cccc2cc(C)c(-c3ccccc3)nc12` showed a melting point of 105 °C.
`CCCCCCCC(=O)c1ccc(CCC(CCOC(C)=O)(CCOC(C)=O)NC(C)=O)cc1` gave a melting point of 83 to 86 °C.
Compound `CC(C)(C)c1cc(C2=C(c3cc(C(C)(C)C)c(O)c(C(C)(C)C)c3)C2=C(C#N)C#N)cc(C(C)(C)C)c1O` has a melting point of 280 to 281 °C.
Work on `CCCCC1N=c2ccc(OCC)c(C(=O)OCC)c2=NC1=O` (configuration not stated) yielded a melting point of 168 to 169 °C.
Compound `COc1ccc(-c2cc(=O)n(CCc3ccc(Cl)cc3)nc2-c2ccc(OC)cc2)cc1` has a melting point of 133 to 134 °C.
`Cc1ccc(N2C(=O)C=CC2=O)cc1N1C(=O)C=CC1=O` showed a melting point of 168 to 172 °C.
For `Cn1ncc2[nH]c3ccc(-c4cccc(O)c4)cc3c(=O)c21`, the melting point was > 250 °C.
With `Nc1ccc(C(=O)c2ccccc2F)cc1` the melting point was 128 to 130 °C.
`COC(=O)c1n[nH]c2cc(C(F)(F)F)ccc12` showed a melting point of 240 to 242 °C.
Work on `CNC(=O)c1ccc2c(c1)c(-c1cc3cccnc3[nH]1)cn2C` yielded a melting point of 186 °C.
`Clc1nc(Cl)c2c(n1)CCCS2` showed a melting point of 110 °C.
With `CC(C)c1cccc(C(C)C)c1NC(=O)CNC(c1ccccc1)c1cccs1` (configuration not stated) the melting point was 164 to 166 °C.
`COC(=O)C1=C(C)NN=C(c2cccc(Cl)c2)C1c1cccc(Cl)c1` (configuration not stated) showed a melting point of 204 °C.
Work on `CN(C)C(=O)CCCOC(=O)C(OCc1ccc(-c2ccc(Cl)cc2)cc1)(C(F)(F)F)C(F)(F)F` yielded a melting point of 54 to 55 °C.
With `Oc1ccc(Cl)c(-n2ccnc2)c1` the melting point was 204 to 205 °C.
With `CN1C(=O)C(c2ccccc2)Oc2cccc3nc4c(c1c23)CCCC4` (configuration not stated) the melting point was 188 to 189 °C.
With `CC(C(=O)c1ccc(F)cc1F)n1cnc(-c2ccc(OCc3ccccc3)cc2)n1` (configuration not stated) the melting point was 80 to 97 °C.
Compound `OCCCCOc1nc(F)c(Cl)cc1Cl` has a melting point of 38 to 39 °C.
Compound `CCOC(=O)C(=O)N(CC)C(=O)OCCOc1ccc(Oc2ccccc2)cc1` has a melting point of 56 to 58 °C.
In the case of `c1ccc(N(c2ccccc2)c2ccc(-c3ccc(-c4ccnc(Nc5ccc6ccccc6c5)n4)cc3)cc2)cc1`, the melting point is reported as > 300 °C.
Compound `CC1(C)CSSC[C@@H](C(=O)O)NC1=O` has a melting point of 160 to 162 °C.
For `CN(N=C(Cl)c1c(F)cccc1F)S(=O)(=O)c1ccccc1`, the melting point was 81.5 to 83 °C.
With `COC(=O)c1cc(N2C(=O)C(=O)N(C(C)C)C2=O)c(F)cc1Cl` the melting point was 106 to 108 °C.
Compound `CNc1ccc2c(C)nc(CC3OC(COC(=O)c4ccccc4)C(O)C3O)n2n1` (configuration not stated) has a melting point of 163 to 165 °C.
Work on `O=C(O)CCOc1cccc2ncccc12` yielded a melting point of 217 to 219 °C.
In the case of `CC(=O)Nc1cc(-n2c(=O)cc(C(F)(F)F)n(C)c2=O)c(F)cc1Cl`, the melting point is reported as 257 to 258 °C.
`CCCc1c(OCCCCCCc2cccc(OCCCCCC(=O)O)c2CCC(=O)O)ccc2c1CCCC2=O` showed a melting point of 100 to 101 °C.
In the case of `C=C[C@@H](C[C@H](O)[C@H](CC1CCCCC1)NC(=O)[C@H](Cc1c[nH]cn1)NC(=O)[C@@H](CC(=O)N1CCC(C(=O)O)CC1)Cc1ccccc1)C(C)C`, the melting point is reported as 169 °C.
For `CCc1c2c(cc3c(=O)cc(C(=O)O)oc13)CCCC2`, the melting point was 269 to 271 °C.
Compound `Cc1cc(N2CCC3(CC2)OCCO3)nn2cnnc12` has a melting point of 156 to 157 °C.
`CCOC(=O)N1CCN(c2ccncc2N)CC1` showed a melting point of 141 to 142 °C.
For `CCOc1ncnc(OC)c1NC(N)=S`, the melting point was 186 to 187 °C.
